Earlier results, collected in US10064816B2, “Treatment of sexual dysfunction” (ReJoy, priority 2015, dated 2018).

System: arrector pili muscle
Details: 1% w/v, iontophoresis

In the case of `CNC[C@H](O)c1cccc(O)c1` [phenylephrine], the “piloerection on the forearm” value is listed as “can activate the piloerection”.
